Measurements from publication PMC6368403, “Identification of a bilirubin receptor that may mediate a component of cholestatic itch” (eLife, 2019).

Legend:
[1] = system: Mrgpr-cluster KO DRG neurons; experiment: Ca2+ imaging of Mrgpr-cluster KO DRG neurons infected with lentivirus encoding Mrgpra1, MRGPRX4 or MRGPRX3; format: cell-based, mouse; settings: 50 µM bilirubin (Fig 3J)
Experimental: DRGs were incubated with Fluo-4 AM 24 hr after dissociation (native genotype) or 48 hr after dissociation (virally transduced). Unless otherwise noted, cells were imaged for 20 seconds to establish a baseline before compounds were added. After 30 s, a 2 min wash was applied before addition of another substances. At the end of every imaging trial, 50 mM KCl was added as a positive control. […] For ruthenium red inhibitor experiments, neurons were incubated with 10 µM ruthenium red for 5 min prior to imaging. Percentage activated was determined as earlier described.
DRG neurons from all spinal levels were collected in cold DH10 media (90% Dulbecco’s modified Eagle’s medium (DMEM)/F-12, 10% FBS, penicillin (100 U/mL), and streptomycin (100 μg/mL)). DRGs were digested with a dispase (5 mg/ml)/collagenase type I (1 mg/ml) enzyme mixture at 37°C for 45 min. After trituration, cells were spun at 300 g and re-suspended in DH10 before being plated on glass coverslips coated with poly-D-lysine (0.5 mg/ml) and laminin (10 μg/ml, Invitrogen). DRGs were cultured with DH10 supplemented with 50 ng/mL NGF at 37°C.
Lentiviruses encoding various cDNA for MRGPRs were generated using psPAX2 and pMD2.G. Virus was pelleted by centrifugation at 100,000 g for 4 hr, gently washed with twice with DH10 medium, and suspended in DH10. One day after DRG isolation and culture, DRGs were infected with lentivirus […]. The following morning, medium was completely replaced with fresh DH10 supplemented with 50 ng/mL NGF. 24 hr after infection, cells were processed for calcium imaging.

[2] = target: T1, MRGPRC11 (Mus musculus, UniProt Q8CIP3); experiment: Microscale thermophoresis binding to MRGPRC11; settings: for microscale thermophoresis response (binding isotherm), mean: mean of n=3, Fig 2-O
T1 construct: expressed in transfected cells
T1 sequence (Q8CIP3 1-322): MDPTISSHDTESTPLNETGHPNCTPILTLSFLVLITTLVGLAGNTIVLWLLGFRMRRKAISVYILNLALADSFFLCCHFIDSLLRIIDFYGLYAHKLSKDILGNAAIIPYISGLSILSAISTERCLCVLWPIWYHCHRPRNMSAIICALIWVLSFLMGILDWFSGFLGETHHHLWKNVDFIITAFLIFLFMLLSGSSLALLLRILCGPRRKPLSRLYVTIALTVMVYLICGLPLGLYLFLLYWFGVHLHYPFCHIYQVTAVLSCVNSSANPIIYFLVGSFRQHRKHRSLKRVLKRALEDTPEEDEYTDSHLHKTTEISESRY
Experimental: Binding isotherms for MRGPRA1, MRGPRX4, and MRGRPC11 towards various ligands were determined by microscale thermophoresis with the NanoTemper monolith NT.115 instrument ([Duhr and Braun, 2006]). Ligands were pre-incubated with 10 µM of the GFP-tagged receptor of interest for 5 min at room temperature in binding buffer (20 mM Tris and 150 mM NaCl at pH 8.8). Receptors were crudely purified as a membrane fraction from cells stably expressing the receptor ([Vasavda et al., 2017]). Haem metabolites were freshly dissolved in 0.1 M NaOH in dim light and then diluted into assay buffer. Lyophilized BAM8-22 was dissolved in binding buffer. The pH of each ligand was evaluated prior to incubation with a receptor. Samples were loaded into NT.115 Hydrophobic-Treated Capillaries from NanoTemper. Microscale thermophoretic experiments were executed using 20% LED power and 15% MST power. KDs were calculated using the law of mass action with data from three independent experiments. Binding between bilirubin and receptors was evaluated purely thermophoretically, whereas binding between BAM8-22 and MRGPRC11 was evaluated by T-Jump. Samples with dramatic deviations in initial fluorescence were excluded.

[3] = system: DRG sensory neurons; experiment: In vivo DRG calcium imaging in Pirt-Cre; lsl-GCaMP6s animals; design: species or system mouse; settings: 5 μL of 100 μM bilirubin into the paw of GCaMP6s mice
Experimental: Adult mice expressing Pirt-Cre and lox-stop-lox GCaMP6s were anesthetized by i.p. injection of chloral hydrate (20 μl/gram of 25 mg/ml solution). The back was shaved and disinfected with alcohol before application of ophthalmic ointment (Lacrilube; Allergen Pharmaceuticals). A dorsal laminectomy was performed below the lumbar enlargement (L5) targeting S1. During the procedure, care was taken to keep dura intact. A 2 cm incision was made at the lumbar enlargement. 0.1 mL of 1% lidocaine was injected into paravertebral muscles before dissection to expose L3–L5 vertebrae. Using rongeurs, the surface aspect of the L4 DRG transverse process was removed and the underlying DRG exposed. Mice were laid abdomen-down on a custom-designed microscope stage and the spinal column was secured at two sites using clamps. Images were acquired using a laser-scanning confocal microscope (Leica LSI microscope) equipped with a […] 0.5 NA macro dry objective and fast EM-CCD camera. Live images were acquired at 8 to 10 frames in frame-scan mode per 7–8 s, at depths of […] below the dura with the DRG in the focal plane. […]
Raw image stacks were collected, deconvoluted, and imported into ImageJ (NIH). […] Calcium signaling amplitudes were expressed as Ft /F0 as a function of time. […]

Work on `C=CC1=C(C)/C(=C/c2[nH]c(Cc3[nH]c(/C=C4\NC(=O)C(C)=C4C=C)c(C)c3CCC(=O)O)c(CCC(=O)O)c2C)NC1=O` [bilirubin, bilirubin IXα] yielded a Percent activated neurons ([1]; MRGPRX4-infected Mrgpr-cluster KO DRG) of 32%, a Percent activated neurons ([1]; Mrgpra1-infected Mrgpr-cluster KO DRG) of 14% and a Percent activated neurons ([1]; uninfected Mrgpr-cluster KO DRG) of 1.3%. The “microscale thermophoresis response (binding isotherm), mean” value (from here on “microscale thermophoresis response”) ([2]; [Ligand] 3.05e-8 M) was 2.385e-5, the “microscale thermophoresis response” value ([2]; [Ligand] 6.1e-8 M) was 4.712e-5 and the “microscale thermophoresis response” value ([2]; [Ligand] 1.221e-7 M) was 4.182e-5. For the same molecule, the “microscale thermophoresis response” value ([2]; [Ligand] 2.441e-7 M) was 4.08e-5, the “microscale thermophoresis response” value ([2]; [Ligand] 4.883e-7 M) was 5.536e-5 and the “microscale thermophoresis response” value ([2]; [Ligand] 9.766e-7 M) was 1.928e-5. The “microscale thermophoresis response” value ([2]; [Ligand] 1.9531e-6 M) was -5.329e-6, the “microscale thermophoresis response” value ([2]; [Ligand] 3.9063e-6 M) was -1.57e-5 and the “microscale thermophoresis response” value ([2]; [Ligand] 7.8125e-6 M) was -3.808e-5. For the same molecule, the “microscale thermophoresis response” value ([2]; [Ligand] 1.5625e-5 M) was -4.952e-5, the “microscale thermophoresis response” value ([2]; [Ligand] 3.125e-5 M) was -4.222e-5 and the “microscale thermophoresis response” value ([2]; [Ligand] 6.25e-5 M) was 5.5228e-6. The “microscale thermophoresis response” value ([2]; [Ligand] 0.000125 M) was 4.793e-5, the “microscale thermophoresis response” value ([2]; [Ligand] 0.00025 M) was 9.26e-5 and the “microscale thermophoresis response” value ([2]; [Ligand] 0.0005 M) was 0.0002843. The “Affinity for MRGPRC11” value ([2]; microscale thermophoresis) was “little to no affinity” and the “Activation of DRG sensory neurons in vivo” value [3] was “activated numerous DRG sensory neurons”.
